Measurements from publication PMC8742467, “Therapeutical interference with the epigenetic landscape of germ cell tumors: a comparative drug study and new mechanistical insights” (Clinical Epigenetics, 2022).

What was measured:
[1] = system: CC (choriocarcinoma) cell lines JAR, JEG-3, BeWo; assay: XTT cell viability assay, CC cell lines; assay type: cell-based; conditions: Homo sapiens; after 48 h, mean per entity
Procedure: The […] (XTT) assays were performed as described previously. In summary, for GCT and fibroblast cell lines 5 × 10^3 cells (3 × 10^3 for UC, PCa and RCC cell lines) per 96-well were seeded and different drug concentrations (see Additional file 2: Fig. S2, Additional file 3: Fig. S3) or corresponding solvents were added to the cells the following day. For drug details see Additional file 12: Table S2 C. Each condition was analyzed in four technical replicates and EC50 values were calculated by GraphPad Prism v8.

[2] = system: 2102EP-R; assay: Flow cytometry apoptosis (Annexin V/PI), 2102EP-R; assay type: cell-based, Human; conditions: EC50, 16 h, compared to the parental cell line
Procedure: For Annexin V/PI staining, cells were washed with Annexin V Binding Buffer before being resuspended in 70 µl Annexin V Binding Buffer and 2.5 μl Annexin V FITC-conjugate (both Miltenyi Biotec, Bergisch Gladbach, Germany) and 15 µg PI (Sigma-Aldrich, Taufkirchen, Germany) and incubated in the dark at room temperature for 15 min. 500 µl of Annexin V Binding Buffer was added before measurement.

[3] = system: histone modifications in 2102EP cells; assay: Mass spectrometry analysis of histone modifications (Mod Spec); assay type: cell-based, Human
Summary of the method: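 2102EP cells were treated for 16 h with EC50 concentrations of Quisinostat, JIB-04, Chaetocin, MZ-1, LP99, PRT4165 or GSK343, with DMSO as solvent control. After trypsin harvest, histones were extracted and analysed by mass spectrometry. Raw data were converted to z-scores.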

[4] = 2102EP cells, Mod Spec raw data
[5] = 2102EP, EC50, 16 h, vs solvent control

## CCCc1cc(C)[nH]c(=O)c1CNC(=O)c1cc(-c2ccnc(N3CCN(C)CC3)c2)cc2c1cnn2C(C)C [GSK343]
[1]
  EC50: 10.4 µM
[2]
  apoptosis induction in 2102EP-R: did not induce apoptosis
[3]; [4]
  H1.4: K25AC, % of peptide pool: 0.006216%
  H1.4: K25ME1, % of peptide pool: 2.263%
  H1.4: K25ME2, % of peptide pool: 0.05379%
  H1.4: K25ME3, % of peptide pool: 0.00622%
  H1.4: K25UN, % of peptide pool: 97.6705%
  H2A1: K13AC, % of peptide pool: 0.008349%
  H2A1: K13UN, % of peptide pool: 99.9917%
  H2A1: K15AC, % of peptide pool: 0.01155%
  H2A1: K15UB, % of peptide pool: 0%
  H2A1: K15UN, % of peptide pool: 99.9884%
  H2A3: K13AC, % of peptide pool: 0.06695%
  H2A3: K13UN, % of peptide pool: 99.933%
  H2A3: K15AC, % of peptide pool: 0.06714%
  H2A3: K15UB, % of peptide pool: 0%
  H2A3: K15UN, % of peptide pool: 99.9329%
  H2A: K5AC, % of peptide pool: 13.1006%
  H2A: K5UN, % of peptide pool: 86.8994%
  H2A: K9AC, % of peptide pool: 1.639%
  H2A: K9UN, % of peptide pool: 98.3613%
  H2A: K36AC, % of peptide pool: 0.03993%
  H2A: K36UN, % of peptide pool: 99.9601%
  H3: K9AC, % of peptide pool: 0.6993%
  H3: K9ME1, % of peptide pool: 34.216%
  H3: K9ME2, % of peptide pool: 32.7434%
  H3: K9ME3, % of peptide pool: 3.375%
  H3: K9UN, % of peptide pool: 28.9663%
  H3: K14AC, % of peptide pool: 31.7092%
  H3: K14UN, % of peptide pool: 68.2908%
  H3: K18AC, % of peptide pool: 12.5517%
  H3: K18ME1, % of peptide pool: 0.1858%
  H3: K18UN, % of peptide pool: 87.2625%
  H3: K23AC, % of peptide pool: 21.2228%
  H3: K23ME1, % of peptide pool: 0.01722%
  H3: K23UN, % of peptide pool: 78.76%
  H3: K56AC, % of peptide pool: 0.2947%
  H3: K56ME1, % of peptide pool: 0.4365%
  H3: K56UN, % of peptide pool: 99.2689%
  H3: K64AC, % of peptide pool: 0.01667%
  H3: K64UN, % of peptide pool: 99.9833%
  H3: K79AC, % of peptide pool: 0.7184%
  H3: K79ME1, % of peptide pool: 16.7848%
  H3: K79ME2, % of peptide pool: 6.651%
  H3: K79ME3, % of peptide pool: 10.1333%
  H3: K79UN, % of peptide pool: 65.7124%
  H3: K122AC, % of peptide pool: 0.136%
  H3: K122UN, % of peptide pool: 99.864%
  H3: Q19ME1, % of peptide pool: 0.007707%
  H3: Q19UN, % of peptide pool: 99.9923%
  H3: Q55ME1, % of peptide pool: 0.1478%
  H3: Q55UN, % of peptide pool: 99.8522%
  H3: R42ME2, % of peptide pool: 3.196%
  H3: R42UN, % of peptide pool: 96.8039%
  H3: R49ME2, % of peptide pool: 7.636%
  H3: R49UN, % of peptide pool: 92.3639%
  H3R2UN: K4AC, % of peptide pool: 0.06759%
  H3R2UN: K4ME1, % of peptide pool: 18.4584%
  H3R2UN: K4ME2, % of peptide pool: 0.1346%
  H3R2UN: K4ME3, % of peptide pool: 0.0559%
  H3R2UN: K4UN, % of peptide pool: 81.2835%
  H3R2UN: Q5ME1, % of peptide pool: 0.1125%
  H3R2UN: Q5UN, % of peptide pool: 99.8875%
  H3.1: K27AC, % of peptide pool: 2.595%
  H3.1: K27ME1, % of peptide pool: 48.9633%
  H3.1: K27ME2, % of peptide pool: 15.6374%
  H3.1: K27ME3, % of peptide pool: 2.258%
  H3.1: K27UN, % of peptide pool: 30.5467%
  H3.1: K36AC, % of peptide pool: 0.2238%
  H3.1: K36ME1, % of peptide pool: 13.8902%
  H3.1: K36ME2, % of peptide pool: 50.2838%
  H3.1: K36ME3, % of peptide pool: 20.6064%
  H3.1: K36UN, % of peptide pool: 14.9959%
  H3.3: K27AC, % of peptide pool: 7.138%
  H3.3: K27M, % of peptide pool: 0%
  H3.3: K27ME1, % of peptide pool: 44.2688%
  H3.3: K27ME2, % of peptide pool: 12.6213%
  H3.3: K27ME3, % of peptide pool: 4.2957%
  H3.3: K27UN, % of peptide pool: 31.6757%
  H3.3: K36AC, % of peptide pool: 3.015%
  H3.3: K36ME1, % of peptide pool: 12.2658%
  H3.3: K36ME2, % of peptide pool: 51.706%
  H3.3: K36ME3, % of peptide pool: 19.9849%
  H3.3: K36UN, % of peptide pool: 13.0282%
  H4: K5AC, % of peptide pool: 7.684%
  H4: K5UN, % of peptide pool: 92.3159%
  H4: K8AC, % of peptide pool: 10.6823%
  H4: K8UN, % of peptide pool: 89.3177%
[3]; 2102EP cells, Mod Spec raw data, histone H4 K12 acetylated
  H4: K12AC, % of peptide pool: 6.039 % of peptide pool
[3]; 2102EP cells, Mod Spec raw data, histone H4 K12 unmodified
  H4: K12UN, % of peptide pool: 93.9609 % of peptide pool
[3]; 2102EP cells, Mod Spec raw data, histone H4 K16 acetylated
  H4: K16AC, % of peptide pool: 41.5696 % of peptide pool
[3]; 2102EP cells, Mod Spec raw data, histone H4 K16 unmodified
  H4: K16UN, % of peptide pool: 58.4304 % of peptide pool
[3]; 2102EP cells, Mod Spec raw data, histone H4 K20 acetylated
  H4: K20AC, % of peptide pool: 21.2904 % of peptide pool
[3]; 2102EP cells, Mod Spec raw data, histone H4 K20 dimethylated
  H4: K20ME2, % of peptide pool: 42.0499 % of peptide pool
[3]; 2102EP cells, Mod Spec raw data, histone H4 K20 monomethylated
  H4: K20ME1, % of peptide pool: 3.554 % of peptide pool
[3]; 2102EP cells, Mod Spec raw data, histone H4 K20 trimethylated
  H4: K20ME3, % of peptide pool: 1.778 % of peptide pool
[3]; 2102EP cells, Mod Spec raw data, histone H4 K20 unmodified
  H4: K20UN, % of peptide pool: 31.3272 % of peptide pool
[3]; [5]
  change of histone modifications of the expected mode of action (Mod Spec): decreased H3K27 methylation
  off-target changes of histone modifications (Mod Spec): increase of H4K20ac
